Key:
[1] = tested on: HSV-1; experiment: Antiviral activity, HSV-1 in Vero cells, plaque method; format: cell-based; details: Human alphaherpesvirus 1, 20 hours, 90% inhibition of plaque formation
Procedure, shortened: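 HSV-1 (50,000 pfu in 2% FBS-DMEM) was added to Vero cells and removed, then the compound was applied in 2% FBS-DMEM for 20 h at 37° C, 5% CO2. After a freeze-thaw, virus yield in the medium was titred by plaque assay. EC90 is the concentration giving 90% plaque reduction versus the compound-free control.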

[2] = molecular target: T1, HSV-1 protease (Human herpesvirus 1, UniProt P10210); experiment: Enzymatic assay for HSV-1 protease (assembly) inhibitor, fluorescence polarization; format: biochemical; details: read-out: HSV-1 Enzyme inhibition IC50
T1 construct: 6xHis (N); made in house; host or cells: baculovirus expression system
Procedure, shortened: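 His6-tagged HSV-1 UL26 protease, baculovirus-expressed, preincubated 30 min at RT with compound in 1 M citrate/phosphate buffer pH 7.4 with 20% glycerol and 2 mM TCEP. A biotin-HTYLQA*SERFRIK-DTAF substrate was then cleaved for 60 min at RT, stopped with avidin, and read by fluorescence polarization versus no-inhibitor control.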

[3] = tested on: Vero cells; experiment: Cytotoxicity, Vero cells, Alamar Blue; format: cell-based; details: 25 μM, 20 hours
Protocol: An Assay Method for Cytotoxicity
The Vero cells were sown on a 96-well plate and then cultured overnight. The culture supernatant was removed, and 200 μl of 2% FBS-DMEM comprising 25 μM of the test compound was added. In this case, a substance to which 2% FBS-DMEM not comprising any test compound had been added was determined as a control. These cells were incubated in the presence of 5% CO2 at 37° C. for 20 hours. Alamar Blue (20 μl) was added to the cells, and cells were incubated for about 6 hours until the color of the control changed. The ratio of the absorbance was assayed using a microplate reader for absorption, and the value relative to the control was determined to be the ratio of living cells.

T1 sequence (P10210 1-247): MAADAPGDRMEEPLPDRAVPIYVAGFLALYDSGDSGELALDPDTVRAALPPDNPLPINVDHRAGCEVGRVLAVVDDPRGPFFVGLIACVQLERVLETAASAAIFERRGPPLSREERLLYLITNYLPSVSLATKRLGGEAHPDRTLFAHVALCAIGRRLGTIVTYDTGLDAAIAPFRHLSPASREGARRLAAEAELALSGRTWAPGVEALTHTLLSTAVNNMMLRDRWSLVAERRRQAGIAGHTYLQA

| EC90 [1] | IC50 [2] | SMILES | Cell viability (% of control) [3] |
| --- | --- | --- | --- |
| > 12.5 µM | 8 µM | Cc1c(NC(=O)c2cccc([N+](=O)[O-])c2)ccc2nc(NC(C)(C)C(=O)N(C)CCc3ccccn3)oc(=O)c12 [Compound No.141, N-(5-Methyl-2-{1-methyl-1-[methyl-(2-pyridin-2-yl-ethyl)-carbamoyl]-ethylamino}-4-oxo-4H-benzo[d][1,3]oxazin-6-yl)-3-nitro-benzamide] | 80.4% |
| > 12.5 µM | 7.6 µM | Cc1c(NC(=O)OC(C)(C)C)ccc2nc(N3CCCC[C@H]3C(=O)N(C)CCc3ccccn3)oc(=O)c12 [Compound No.106, (5-Methyl-2-{2S-[methyl-(2-pyridin-2-yl-ethyl)-carbamoyl]-piperidin-1-yl}-4-oxo-4H-benzo[d][1,3]oxazin-6-yl)-carbamic acid tert-butyl ester] | 53.3% |
| > 12.5 µM | 7.4 µM | Cc1c(NC(=O)OC(C)(C)C)ccc2nc(N3CCCC[C@H]3C(=O)N(C)CCc3cccnc3)oc(=O)c12 [Compound No.107, (5-Methyl-2-{2S-[methyl-(2-pyridin-3-yl-ethyl)-carbamoyl]-piperidin-1-yl}-4-oxo-4H-benzo[d][1,3]oxazin-6-yl)-carbamic acid tert-butyl ester] | 45.4% |
| < 3.2 µM | 1.2 µM | Cc1c(NC(=O)OC(C)(C)C)ccc2nc(N[C@@H](CC3CCCCC3)C(=O)N(C)Cc3ccccn3)oc(=O)c12 [Compound No.63, {2-[2-Cyclohexyl-1S-(methyl-pyridin-2-ylmethyl-carbamoyl)-ethylamino]-5-methyl-4-oxo-4H-benzo[d][1,3]oxazin-6-yl}-carbamic acid tert-butyl ester] | 60.1% |
| 8.8 µM | 10.1 µM | Cc1c(NC(=O)OC(C)(C)C)ccc2nc(N3C[C@H](OCc4ccccc4)C[C@H]3C(=O)N(C)Cc3ccccn3)oc(=O)c12 [Compound No.113, {2-[4R-Benzyloxy-2S-(methyl-pyridin-2-ylmethyl-carbamoyl)-pyrrolidin-1-yl]-5-methyl-4-oxo-4H-benzo[d][1,3]oxazin-6-yl}-carbamic acid tert-butyl ester] | 71.7% |
| < 6.3 µM | 4.4 µM | Cc1c(NC(=O)OC(C)(C)C)ccc2nc(N[C@@H](CC3CCCCC3)C(=O)NCc3ccncc3)oc(=O)c12 [Compound No.28, (2-{2-Cyclohexyl-1S-[(pyridin-4-ylmethyl)-carbamoyl]-ethylamino}-5-methyl-4-oxo-4H-benzo[d][1,3]oxazin-6-yl)-carbamic acid tert-butyl ester] | 70.0% |
| > 12.5 µM | 1.4 µM | Cc1c(NC(=O)C2CCCC2)ccc2nc(NC(C)(C)C(=O)N(C)CCc3ccccn3)oc(=O)c12 [Compound No.188, Cyclopentanecarboxylic acid (5-methyl-2-{1-methyl-1-[methyl-(2-pyridin-2-yl-ethyl)-carbamoyl]-ethylamino}-4-oxo-4H-benzo[d][1,3]oxazin-6-yl)-amide] | 91.7% |
| 11.2 µM | 5.5 µM | Cc1c(NC(=O)OC(C)(C)C)ccc2nc(N3Cc4ccccc4C[C@H]3C(=O)NCc3ccncc3)oc(=O)c12 [Compound No.96, (5-Methyl-4-oxo-2-{3S-[(pyridin-4-ylmethyl)-carbamoyl]-3,4-dihydro-1H-isoquinolin-2-yl}-4H-benzo[d][1,3]oxazin-6-yl)-carbamic acid tert-butyl ester] | 55.4% |
| 13 µM | 3.2 µM | Cc1c(NC(=O)OC(C)(C)C)ccc2nc(N[C@H](C(=O)NCCc3ccccn3)C(C)C)oc(=O)c12 [Compound No.26, {5-Methyl-2-[2-methyl-1S-(2-pyridin-2-ylethylcarbamoyl)-propylamino]-4-oxo-4H-benzo[d][1,3]oxazin-6-yl}-carbamic acid tert-butyl ester] | 107.0% |
| 6.6 µM | 1.7 µM | Cc1c(NC(=O)OC(C)(C)C)ccc2nc(N[C@H](C(=O)N(C)CCc3ccccn3)C(C)C)oc(=O)c12 [Compound No.45, (5-Methyl-2-{2-methyl-1S-[methyl-(2-pyridin-2-yl-ethyl)-carbamoyl]-propylamino}-4-oxo-4H-benzo[d][1,3]oxazin-6-yl)-carbamic acid tert-butyl ester] | 107.0% |
| 6.3 µM | 1.8 µM | Cc1c(NC(=O)c2cccc(Cl)c2)ccc2nc(NC(C)(C)C(=O)N(C)CCc3ccccn3)oc(=O)c12 [Compound No.152, 3-Chloro-N-(5-methyl-2-{1-methyl-1-[methyl-(2-pyridin-2-yl-ethyl)-carbamoyl]-ethylamino}-4-oxo-4H-benzo[d][1,3]oxazin-6-yl)-benzamide] | 30.9% |
| 12.1 µM | 2.1 µM | Cc1c(NC(=O)COCc2ccccc2)ccc2nc(NC(C)(C)C(=O)N(C)CCc3ccccn3)oc(=O)c12 [Compound No.184, 2-[6-(2-Benzyloxy-acetylamino)-5-methyl-4-oxo-4H-benzo[d][1,3]oxazin-2-ylamino]-2,N-dimethyl-N-(2-pyridin-2-yl-ethyl)-propionamide] | 93.1% |
| > 12.5 µM | > 20 µM | Cc1c(NC(=O)OC(C)(C)C)ccc2nc(N3CCC[C@H]3C(=O)N(C)CCc3cccnc3)oc(=O)c12 [Compound No.92, (5-Methyl-2-{2S-[methyl-(2-pyridin-3-yl-ethyl)-carbamoyl]-pyrrolidin-1-yl}-4-oxo-4H-benzo[d][1,3]oxazin-6-yl)-carbamic acid tert-butyl ester] | 87.2% |
| 4.9 µM | 1.7 µM | Cc1c(NC(=O)OC(C)(C)C)ccc2nc(N[C@@H](CC(C)C)C(=O)N(C)CCc3ccccn3)oc(=O)c12 [Compound No.46, (5-Methyl-2-{3-methyl-1S-[methyl-(2-pyridin-2-yl-ethyl)-carbamoyl]-butylamino}-4-oxo-4H-benzo[d][1,3]oxazin-6-yl)-carbamic acid tert-butyl ester] | 80.1% |
| 10.2 µM | 1.8 µM | COc1cccc(C(=O)Nc2ccc3nc(NC(C)(C)C(=O)N(C)CCc4ccccn4)oc(=O)c3c2C)c1 [Compound No.162, 3-Methoxy-N-(5-methyl-2-{1-methyl-1-[methyl-(2-pyridin-2-yl-ethyl)-carbamoyl]-ethylamino}-4-oxo-4H-benzo[d][1,3]oxazin-6-yl)-benzamide] | 75.5% |
| 5.9 µM | > 20 µM | Cc1c(NC(=O)OC(C)(C)C)ccc2nc(N[C@H](C(=O)N(C)CCc3ccccn3)C(C)(C)C)oc(=O)c12 [Compound No.44, (2-{2,2-dimethyl-1S-[methyl-(2-pyridin-2-yl-ethyl)-carbamoyl]-propylamino}-5-methyl-4-oxo-4H-benzo[d][1,3]oxazin-6-yl)-carbamic acid tert-butyl ester] | 66.2% |
| > 12.5 µM | > 20 µM | Cc1c(NC(=O)OC(C)(C)C)ccc2nc(N3CCC[C@H]3C(=O)N(C)CCc3ccccn3)oc(=O)c12 [Compound No.91, (5-Methyl-2-{2S-[methyl-(2-pyridin-2-yl-ethyl)-carbamoyl]-pyrrolidin-1-yl}-4-oxo-4H-benzo[d][1,3]oxazin-6-yl)-carbamic acid tert-butyl ester] | 92.3% |
| 5.4 µM | 2.3 µM | Cc1c(NC(=O)OC(C)(C)C)ccc2nc(N3Cc4ccccc4C[C@H]3C(=O)NCc3ccccn3)oc(=O)c12 [Compound No.94, (5-Methyl-4-oxo-2-{3S-[(pyridin-2-ylmethyl)-carbamoyl]-3,4-dihydro-1H-isoquinolin-2-yl}-4H-benzo[d][1,3]oxazin-6-yl)-carbamic acid tert-butyl ester] | 55.2% |
| 5.9 µM | 0.9 µM | Cc1c(NC(=O)OC(C)(C)C)ccc2nc(N(C)[C@@H](Cc3ccccc3)C(=O)NCc3ccncc3)oc(=O)c12 [Compound No.80, [5-Methyl-2-(methyl-{2-phenyl-1S-[(pyridin-4-ylmethyl)-carbamoyl]-ethyl}-amino)-4-oxo-4H-benzo[d][1,3]oxazin-6-yl]-carbamic acid tert-butyl ester] | 48.0% |
| 3.7 µM | 1.2 µM | Cc1c(NC(=O)OC(C)(C)C)ccc2nc(N[C@@H](CCc3ccccc3)C(=O)N(C)CCc3ccccn3)oc(=O)c12 [Compound No.48, (5-Methyl-2-{1S-[methyl-(2-pyridin-2-yl-ethyl)-carbamoyl]-3-phenyl-propylamino}-4-oxo-4H-benzo[d][1,3]oxazin-6-yl)-carbamic acid tert-butyl ester] | 44.2% |

Source: patent US20040116420A1 (priority 2001, published 2004)
